From patent US12071411B2, “Inhibitors of HIF-2α and methods of use thereof” (ARCUS BIOSCIENCES, INC., priority 2021, dated 2024)

How the values were obtained:
HIF-2α [1] = target: T1, HIF-2α (Homo sapiens, UniProt Q99814); assay: HIF-2α Luciferase Reporter Assay (serum free) in HIF-Luc-786-0 cells; assay type: cell-based; settings: Opti-MEM, 786-0 reporter cells, 20 hours incubation
Method in brief: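 786-0 cells stably transduced with HIF luciferase reporter, 20,000 cells/well in serum-free Opti-MEM, compounds (50 uM downward, 1% DMSO) 20 h at 37 °C. ONE-Glo luminescence normalized to DMSO and no-cell controls; IC50 from four-parameter fit.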

[2] = target: T2, Biotin tagged HIF-2α protein containing PAS-B domain (240-350) (Homo sapiens, UniProt Q99814); assay: HIF-2α Scintillation Proximity Assay (SPA) binding assay; settings: 50 nM HIF-2α protein, 25 nM 3H-tracer, 2% DMSO
T2 construct: Biotin tagged HIF-2α protein containing PAS-B domain (240-350) was prepared and purified in-house; made in house
T2 sequence (Q99814 240-350): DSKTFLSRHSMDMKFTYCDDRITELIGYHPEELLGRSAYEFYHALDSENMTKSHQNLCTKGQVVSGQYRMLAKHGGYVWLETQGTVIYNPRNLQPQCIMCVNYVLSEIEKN
Protocol: HIF-2α Scintillation Proximity Assay (SPA) Binding Assay:
Biotin tagged HIF-2α protein containing PAS-B domain (240-350) was prepared and purified in-house.
Compounds solubilized in DMSO were dispensed into a white 384-well polystyrene non-binding flat clear bottom plate (Greiner Bio-One, Cat #781903) using an HP D300 dispenser. Ten microliters of biotinylated HIF-2α protein in buffer (25 mM Tris-HCl, pH 7.4, 150 mM NaCl, 0.15% BSA and 0.001% Tween 20) was added to the compound wells and allowed to incubate for 1 hour at room temperature. Ten microliters of SPA bead mix were added to the wells and incubated for an additional 45 minutes, followed by 10 ul of ^3H-tracer solution. Final assay conditions comprised 50 nM HIF-2α protein, 25 nM radiolabeled tracer and 3 ug beads per well with compounds in 2% DMSO. The plate was read using a MicroBeta Microplate Counter (PerkinElmer) for luminescence detection. The IC50 values of the test compounds were determined from compound dose response curves fitted using a standard four parameter fit equation and are reported in Table 2.

HIF-2α [3] = target: T1, HIF-2α; assay: HIF-2α Luciferase Reporter Assay (serum), HRE-luciferase 786-0 cells in 100% human serum; assay type: cell-based; settings: for IC50: 100% human serum, 786-0 reporter cells, overnight incubation, read-out: Serum Potency; for Serum Shift (approximate): ratio of IC50 in 100% serum to IC50 in serum free conditions
Method in brief: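 786-0 cells stably expressing an HRE-luciferase reporter were plated and rested 3 h. They were then treated overnight at 37 °C with compound diluted in 100% human serum. Serum was replaced with Opti-MEM, ONE-Glo luminescence was read, and IC50 came from a 4-parameter logistic fit.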

T1 sequence (Q99814 whole entry): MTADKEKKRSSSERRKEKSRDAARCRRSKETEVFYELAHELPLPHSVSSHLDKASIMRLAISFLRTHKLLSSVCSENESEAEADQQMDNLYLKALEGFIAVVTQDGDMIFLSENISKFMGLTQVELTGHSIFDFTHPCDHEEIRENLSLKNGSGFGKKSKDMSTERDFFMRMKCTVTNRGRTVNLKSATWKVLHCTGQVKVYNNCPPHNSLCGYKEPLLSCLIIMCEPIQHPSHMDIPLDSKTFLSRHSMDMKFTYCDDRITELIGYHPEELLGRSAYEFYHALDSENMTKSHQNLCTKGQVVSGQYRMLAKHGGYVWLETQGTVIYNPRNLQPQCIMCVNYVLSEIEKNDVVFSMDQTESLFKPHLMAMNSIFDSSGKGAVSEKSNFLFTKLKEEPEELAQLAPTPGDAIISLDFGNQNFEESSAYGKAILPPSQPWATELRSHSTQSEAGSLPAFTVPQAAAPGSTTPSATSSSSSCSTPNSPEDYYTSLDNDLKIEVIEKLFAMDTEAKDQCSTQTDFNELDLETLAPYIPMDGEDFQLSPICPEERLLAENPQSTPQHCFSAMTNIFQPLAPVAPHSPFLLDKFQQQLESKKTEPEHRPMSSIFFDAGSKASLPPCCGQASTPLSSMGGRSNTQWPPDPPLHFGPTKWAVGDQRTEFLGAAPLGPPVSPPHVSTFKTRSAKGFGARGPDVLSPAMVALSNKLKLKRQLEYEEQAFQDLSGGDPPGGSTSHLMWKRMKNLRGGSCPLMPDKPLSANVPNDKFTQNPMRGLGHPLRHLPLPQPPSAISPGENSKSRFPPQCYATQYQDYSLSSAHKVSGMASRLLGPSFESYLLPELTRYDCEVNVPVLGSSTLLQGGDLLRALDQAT

Structure (SMILES)	IC50 (HIF-2α [1]) [nM]	IC50 [2] [nM]	IC50 (HIF-2α [3]) [nM]	Serum Shift (approximate) (HIF-2α [3])
CCCCn1nc(C(F)(F)F)c2c1CCC(F)(F)[C@H]2O [Example 39, (4S)-1-butyl-5,5-difluoro-3-(trifluoromethyl)-6,7-dihydro-4H-indazol-4-ol]	100 to 1000	100 to 1000	> 1000	>39
CC(C#N)CCn1nc(C(F)(F)F)c2c1CCC(F)(F)[C@H]2O (stereo partly drawn) [Example 3, 4-[(4S)-5,5-difluoro-4-hydroxy-3-(trifluoromethyl)-6,7-dihydro-4H-indazol-1-yl]-2-methylbutanenitrile]	100 to 1000	100 to 1000	100 to 1000	1
CC(CCn1nc(C#N)c2c1CCC(F)(F)[C@H]2O)C(F)(F)F (stereo partly drawn) [Example 49, (4S)-5,5-difluoro-4-hydroxy-1-(4,4,4-trifluoro-3-methylbutyl)-6,7-dihydro-4H-indazole-3-carbonitrile]	100 to 1000	100 to 1000	> 1000	7
O[C@H]1c2c(C(F)(F)F)nn(CCCC(F)(F)F)c2CCC1(F)F [Example 41, (4S)-5,5-difluoro-1-(4,4,4-trifluorobutyl)-3-(trifluoromethyl)-6,7-dihydro-4H-indazol-4-ol]	< 100	< 100	100 to 1000	12
CC(C)CCn1nc(C(F)(F)F)c2c1CCC(F)(F)[C@H]2O [Example 40, (4S)-5,5-difluoro-1-(3-methylbutyl)-3-(trifluoromethyl)-6,7-dihydro-4H-indazol-4-ol]	100 to 1000	100 to 1000	> 1000	31

Results, then the compound that gave them:

IC50 (HIF-2α [1]) [nM]	IC50 [2] [nM]	IC50 (HIF-2α [3]) [nM]	Serum Shift (approximate) (HIF-2α [3])	Structure (SMILES)
100 to 1000	100 to 1000	> 1000	6	O[C@H]1c2c(C(F)(F)F)nn(CCC3CC(F)(F)C3)c2CCC1(F)F [Example 44, (4S)-1-[2-(3,3-difluorocyclobutyl)ethyl]-5,5-difluoro-3-(trifluoromethyl)-6,7-dihydro-4H-indazol-4-ol]
100 to 1000	100 to 1000	> 1000	3	O[C@H]1c2c(C(F)(F)F)nn(CCC3(F)COC3)c2CCC1(F)F [Example 21, (4S)-5,5-difluoro-1-[2-(3-fluorooxetan-3-yl)ethyl]-3-(trifluoromethyl)-4,5,6,7-tetrahydro-1H-indazol-4-ol]
100 to 1000	100 to 1000	100 to 1000	2	O=S1(=O)CC(Cn2nc(C(F)(F)F)c3c2CCC(F)(F)[C@H]3O)C1 [Example 46, (4S)-1-[(1,1-dioxothietan-3-yl)methyl]-5,5-difluoro-3-(trifluoromethyl)-6,7-dihydro-4H-indazol-4-ol]
100 to 1000	100 to 1000	> 1000	7	O[C@H]1c2c(C(F)(F)F)nn(CCCC(F)F)c2CCC1(F)F [Example 31, (4S)-1-(4,4-difluorobutyl)-5,5-difluoro-3-(trifluoromethyl)-6,7-dihydro-4H-indazol-4-ol]
100 to 1000	100 to 1000	> 1000	6	O[C@H]1c2c(C(F)(F)F)nn(CC3CC3(F)F)c2CCC1(F)F (single isomer, unassigned) [23/24 DIAST-1]
